Experimental findings from ChEMBL document CHEMBL4725277, “Synthetic and therapeutic perspectives of nitrogen containing heterocycles as anti-convulsants” (Bioorg Med Chem, 2020) are described below.

A short description of data set [1]: Protective index, ratio of TD50 for neurotoxicity in KunMing mouse to ED50 for anticonvulsant activity in KunMing mouse assessed as protection against current-induced seizure. It counts as toxicity. The note with it: in vivo, read-out: PI.
A short description of data set [2]: Neurotoxicity in KunMing mouse by rotarod test. It counts as toxicity. The note with it: KunMing, in vivo, read-out: TD50. In general terms: The rotarod test checks motor coordination on a turning rod.
The species entered for data set [3] is Mus musculus. The experiment in a line: Anticonvulsant activity in KunMing mouse assessed as protection against current-induced seizure by maximal electroshock seizure test. It counts as functional. In general terms: Protection in the maximal electroshock model is a classic sign of anticonvulsant action.
For data set [4], the species on record is Mus musculus. The experiment in a line: Anticonvulsant activity in KunMing mouse assessed as protection against pentylenetetrazole-induced seizure by maximal electroshock seizure test. It counts as functional.
Data set [5] in a line: Protective index, ratio of TD50 for neurotoxicity in KunMing mouse to ED50 for anticonvulsant activity in KunMing mouse assessed as protection against pentylenetetrazole-induced seizure. It is filed as toxicity. The following applies: in vivo, read-out: PI.

By TD50 is commonly meant the 50% point of the dose-response relation for the toxic effect studied. Broadly, the ED50 is the midpoint of the dose-response relation.

On to `Clc1ccc(C2Cc3nncn3-c3ccsc32)cc1` (stereo not given), for which the selectivity ratio in data set [1] worked out at 48; in data set [5] it was 22.2. The TD50 in data set [2] came to 456 mg/kg. Also, the ED50 is 9.5 mg/kg in data set [3] and 20.5 mg/kg in data set [4].
